tested on: PBMC (T cell proliferation); experiment: T cell proliferation assay, PHA-stimulated human PBMC (BrdU ELISA); assay type: cell-based; details: Homo sapiens, 48 h, read-out: IC50 (Tcell proliferation)
Procedure: Cell proliferation was analysed using the BrdU based cell proliferation ELISA from Roche (Mannheim, Germany) according to the manufacturer's instructions.
T Cell Proliferation Assay
Peripheral blood mononuclear cells (PBMC) from healthy human donors were isolated by centrifugation over Ficoll-Hypaque (Sigma-Aldrich, Germany) according to manufacturer's instructions. Purified PBMC were washed twice with PBS and resuspended in RPMI1640 culture medium supplemented with 10% dialyzed heat inactivated fetal calf serum, 1.5 mM L-glutamine, 100 U penicillin/ml, and […] (all from PAN Biotech, Aidenbach, Germany). For stimulation, PBMC were seeded at 1×10^5 cells/well, activated with 2 μg/ml phytohaemagglutinin (PHA, Sigma) and incubated with the test compound. After 48 hours proliferation was measured using the BrdU based cell proliferation ELISA from Roche (Mannheim, Germany) according to the manual.

For `Fc1cccc(Cl)c1-c1noc(-c2cnn(-c3ccccc3Cl)c2C(F)(F)F)c1-c1nccs1` [IB-29, 3-(2-chloro-6-fluorophenyl)-5-(1-(2-chlorophenyl)-5-(trifluoromethyl)-1H-pyrazol-4-yl)-4-(thiazol-2-yl)isoxazole], which IC50 is on record?
Its IC50 is 1 to 10 µM.

same assay, conditions: PHA-stimulated human PBMC, 48 hours, BrdU; column D; activity classes 1-4; read-out: IC50 (Tcell proliferation)

`Fc1cccc(Cl)c1-c1noc(-c2cnn(-c3cccnc3)c2C(F)(F)F)c1-c1nnco1` [IB-15, 2-(3-(2-chloro-6-fluorophenyl)-5-(1-(pyridin-3-yl)-5-(trifluoromethyl)-1H-pyrazol-4-yl)isoxazol-4-yl)-1,3,4-oxadiazole] was tested. Which IC50 did it give?
The IC50 was 0.1 to 1 µM.

Which IC50 does the source give for `Fc1cccc(Cl)c1-c1noc(-c2cnn(-c3ccncc3)c2C(F)(F)F)c1-c1cnco1` [IB-33, 3-(2-chloro-6-fluorophenyl)-4-(oxazol-5-yl)-5-(1-(pyridin-4-yl)-5-(trifluoromethyl)-1H-pyrazol-4-yl)isoxazole] here?
The IC50 was 1 to 10 µM.

For `NS(=O)(=O)c1cccc(-n2ncc(-c3onc(-c4c(F)cccc4Cl)c3-c3nnco3)c2C(F)(F)F)c1` [IB-17, 3-(4-(3-(2-chloro-6-fluorophenyl)-4-(1,3,4-oxadiazol-2-yl)isoxazol-5-yl)-5-(trifluoromethyl)-1H-pyrazol-1-yl)benzenesulfonamide], which IC50 is on record?
Its IC50 is 1 to 10 µM.

How did the IC50 turn out when `Cc1nnc(-c2c(-c3c(F)cccc3Cl)noc2-c2cnn(-c3cccnc3)c2C(F)(F)F)s1` [IB-21, 3-(2-chloro-6-fluorophenyl)-4-(5-methyl-1,3,4-thiadiazol-2-yl)-5-(1-(pyridin-3-yl)-5-(trifluoromethyl)-1H-pyrazol-4-yl)isoxazole] was run?
The IC50 was 0.01 to 0.1 µM.

How did the IC50 turn out when `Fc1cccc(-n2ncc(-c3onc(-c4c(F)cccc4Cl)c3-c3ccco3)c2C(F)(F)F)c1` [Example I-17, 3-(2-chloro-6-fluorophenyl)-5-(1-(3-fluorophenyl)-5-(trifluoromethyl)-1H-pyrazol-4-yl)-4-(furan-2-yl)isoxazole] was run?
The IC50 was less than 0.01 µM.

For `Fc1cccc(Cl)c1-c1noc(-c2cnn(-c3cccc(Cl)c3)c2C(F)(F)F)c1-c1nccs1` [Example I-5, 3-(2-chloro-6-fluorophenyl)-5-(1-(3-chlorophenyl)-5-(trifluoromethyl)-1H-pyrazol-4-yl)-4-(thiazol-2-yl)isoxazole], which IC50 is on record?
Its IC50 is less than 0.01 µM.

same assay, conditions: human PBMC, 2 μg/ml PHA, 48 hours, BrdU; read-out: D: IC50 (Tcell proliferation)

Which IC50 does the source give for `CCOC(=O)c1c(-c2c(Cl)cncc2Cl)noc1-c1cnn(-c2ccncc2)c1C(F)(F)F` [Example B-10, ethyl 3-(3,5-dichloropyridin-4-yl)-5-(1-(pyridin-4-yl)-5-(trifluoromethyl)-1H-pyrazol-4-yl)isoxazole-4-carboxylate] here?
The IC50 was 0.1 to 1 µM.

With `CNC(=O)c1c(-c2c(F)cccc2Cl)noc1-c1cnn(-c2ccccc2)c1C(F)(F)F` [Example 59, 3-(2-chloro-6-fluorophenyl)-N-methyl-5-(1-phenyl-5-(trifluoromethyl)-1H-pyrazol-4-yl)isoxazole-4-carboxamide] as the compound, how does the IC50 read?
Its IC50 is 0.1 to 1 µM.

With `COCCn1ncc(-c2onc(-c3c(F)cccc3Cl)c2C(=O)OC)c1C(F)(F)F` [Example 102, methyl 3-(2-chloro-6-fluorophenyl)-5-(1-(2-methoxyethyl)-5-(trifluoromethyl)-H-pyrazol-4-yl)isoxazole-4-carboxylate] as the compound, how does the IC50 read?
The IC50 was 0.1 to 1 µM.

How did the IC50 turn out when `NC(=S)c1c(-c2c(F)cccc2Cl)noc1-c1cnn(-c2ccccc2F)c1C(F)(F)F` [Example B-102, 3-(2-chloro-6-fluorophenyl)-5-(1-(2-fluorophenyl)-5-(trifluoromethyl)-1H-pyrazol-4-yl)isoxazole-4-carbothioamide] was run?
Its IC50 is 0.1 to 1 µM.

How did the IC50 turn out when `COC(=O)c1c(-c2c(Cl)cccc2Cl)noc1-c1cnn(-c2cccc(F)c2)c1C(F)(F)F` [Example 109, methyl 3-(2,6-dichlorophenyl)-5-(1-(3-fluorophenyl)-5-(trifluoromethyl)-1H-pyrazol-4-yl)isoxazole-4-carboxylate] was run?
The IC50 was less than 0.01 µM.

How did the IC50 turn out when `NC(=O)c1c(-c2c(F)cccc2Cl)noc1-c1cnn(-c2cccc(Cl)c2)c1C(F)(F)F` [Example 121, 3-(2-chloro-6-fluorophenyl)-5-(1-(3-chlorophenyl)-5-(trifluoromethyl)-1H-pyrazol-4-yl)isoxazole-4-carboxamide] was run?
Its IC50 is 1 to 10 µM.

How did the IC50 turn out when `CCOC(=O)c1c(-c2ccncc2F)noc1-c1cnn(-c2cccnc2)c1C(F)(F)F` [Example B-17, ethyl 3-(3-fluoropyridin-4-yl)-5-(1-(pyridin-3-yl)-5-(trifluoromethyl)-1H-pyrazol-4-yl)isoxazole-4-carboxylate] was run?
The IC50 was 1 to 10 µM.

For `COC(=O)c1c(-c2c(F)cccc2Cl)noc1-c1cnn(-c2cccc(N)c2)c1C(F)(F)F` [Example B-92, methyl 5-(1-(3-aminophenyl)-5-trifluoromethyl)-1H-pyrazol-4-yl)-3-(2-chloro-6-fluorophenyl)isoxazole-4-carboxylate], which IC50 is on record?
Its IC50 is 0.01 to 0.1 µM.

`CNC(=O)c1c(-c2c(F)cccc2Cl)noc1-c1cnn(-c2ccccn2)c1C(F)(F)F` [Example B-93, 3-(2-chloro-6-fluorophenyl)-N-methyl-5-(1-(pyridin-2-yl)-5-(trifluoromethyl)-1H-pyrazol-4-yl)isoxazole-4-carboxamide] was tested. Which IC50 did it give?
The IC50 was 1 to 10 µM.

Which IC50 does the source give for `O=C(c1c(-c2c(F)cccc2Cl)noc1-c1cnn(-c2ccccc2F)c1C(F)(F)F)N1CCCCC1` [Example 21, (3-(2-chloro-6-fluorophenyl)-5-(1-(2-fluorophenyl)-5-(trifluoromethyl)-1H-pyrazol-4-yl)isoxazol-4-yl)(piperidin-1-yl)methanone] here?
Its IC50 is 0.01 to 0.1 µM.

For `O=CNc1c(-c2c(F)cccc2Cl)noc1-c1cnn(-c2cccc(Cl)c2)c1C(F)(F)F` [Example B-48, N-(3-(2-chloro-6-fluorophenyl)-5-(1-(3-chlorophenyl)-5-(trifluoromethyl)-1H-pyrazol-4-yl)isoxazol-4-yl)formamide], which IC50 is on record?
The IC50 was 1 to 10 µM.

How did the IC50 turn out when `COC(=O)c1c(-c2c(F)cccc2Cl)noc1-c1cnn(CC(F)(F)F)c1C(F)(F)F` [Example 65, methyl 3-(2-chloro-6-fluorophenyl)-5-(1-(2,2,2-trifluoroethyl)-5-(trifluoromethyl)-1H-pyrazol-4-yl)isoxazole-4-carboxylate] was run?
Its IC50 is 0.01 to 0.1 µM.

Which IC50 does the source give for `COC(=O)c1c(-c2c(F)cccc2Cl)noc1-c1cnn(-c2c(F)c(F)cc(F)c2F)c1C(F)(F)F` [Example 47, methyl 3-(2-chloro-6-fluorophenyl)-5-(1-(2,3,5,6-tetrafluorophenyl)-5-(trifluoromethyl)-1H-pyrazol-4-yl)isoxale-4-carboxylate] here?
Its IC50 is 0.1 to 1 µM.

Which IC50 does the source give for `CC(C)OC(=O)c1c(-c2c(F)cccc2Cl)noc1-c1cnn(-c2cccc(S(N)(=O)=O)c2)c1C(F)(F)F` [Example B-73, isopropyl 3-(2-chloro-6-fluorophenyl)-5-(1-(3-sulfamoylphenyl)-5-(trifluoromethyl)-1H-pyrazol-4-yl)isoxazole-4-carboxylate] here?
Its IC50 is 1 to 10 µM.

How did the IC50 turn out when `COC(=O)c1c(-c2c(F)cccc2Cl)noc1-c1cnn(C(C)C)c1C(F)(F)F` [Example 66, methyl 3-(2-chloro-6-fluorophenyl)-5-(1-isopropyl-5-(trifluoromethyl)-1H-pyrazol-4-yl)isoxazole-4-carboxylate] was run?
The IC50 was 1 to 10 µM.

Which IC50 does the source give for `CON(C)C(=O)c1c(-c2c(F)cccc2Cl)noc1-c1cnn(-c2cccc(Cl)c2)c1C(F)(F)F` [Example 63, 3-(2-chloro-6-fluorophenyl)-5-(1-(3-chlorophenyl)-5-(trifluoromethyl)-1H-pyrazol-4-yl)-N-methoxy-N-methylisoxazole-4-carboxamide] here?
Its IC50 is 0.1 to 1 µM.

Which IC50 does the source give for `CCOC(=O)c1c(-c2c(F)cccc2Cl)noc1-c1cnn(-c2ccc([N+](=O)[O-])cc2)c1C(F)(F)F` [Example B-94, ethyl 3-(2-chloro-6-fluorophenyl)-5-(1-(4-nitrophenyl)-5-(trifluoromethyl)-1H-pyrazol-4-yl)isoxazole-4-carboxylate] here?
The IC50 was 1 to 10 µM.

`CC(C)NS(=O)(=O)c1cccc(-n2ncc(-c3onc(-c4c(F)cccc4Cl)c3C(=O)OC(C)C)c2C(F)(F)F)c1` [Example B-79, isopropyl 3-(2-chloro-6-fluorophenyl)-5-(1-(3-(N-isopropylsulfamoyl)phenyl)-5-(trifluoromethyl)-1H-pyrazol-4-yl)isoxazole-4-carboxylate] was tested. Which IC50 did it give?
Its IC50 is 0.1 to 1 µM.

For `COC(=O)c1c(-c2ccc(Cl)cc2Cl)noc1-c1cnn(-c2cccc(Cl)c2)c1C(F)(F)F` [Example B-76, methyl 5-(1-(3-chlorophenyl)-5-(trifluoromethyl)-1H-pyrazol-4-yl)-3-(2,4-dichlorophenyl)isoxazole-4-carboxylate], which IC50 is on record?
The IC50 was 0.1 to 1 µM.

`Fc1cccc(Cl)c1-c1noc(-c2cnn(-c3cccc(Cl)c3)c2C(F)(F)F)c1Br` [Example 140, 4-bromo-3-(2-chloro-6-fluorophenyl)-5-(1-(3-chlorophenyl)-5-(trifluoromethyl)-1H-pyrazol-4-yl)isoxazole] was tested. Which IC50 did it give?
Its IC50 is 0.01 to 0.1 µM.

How did the IC50 turn out when `COC(=O)c1c(-c2ccc(Cl)cc2)noc1-c1cnn(-c2cccc(F)c2)c1C(F)(F)F` [Example 73, methyl 3-(4-chlorophenyl)-5-(1-(3-fluorophenyl)-5-(trifluoromethyl)-1H-pyrazol-4-yl)isoxazole-4-carboxylate] was run?
Its IC50 is 1 to 10 µM.

`Nc1c(-c2c(F)cccc2Cl)noc1-c1cnn(-c2cccc(F)c2)c1C(F)(F)F` [Example 117, 3-(2-chloro-6-fluorophenyl)-5-(1-(3-fluorophenyl)-5-(trifluoromethyl)-1H-pyrazol-4-yl)isoxazol-4-amine] was tested. Which IC50 did it give?
The IC50 was 0.1 to 1 µM.

`CC(=O)Nc1c(-c2c(F)cccc2Cl)noc1-c1cnn(-c2cccc(Cl)c2)c1C(F)(F)F` [Example B-39, N-(3-(2-chloro-6-fluorophenyl)-5-(1-(3-chlorophenyl)-5-(trifluoromethyl)-1H-pyrazol-4-yl)-isoxazol-4-yl)acetamide] was tested. Which IC50 did it give?
The IC50 was 1 to 10 µM.
